Patent US20110003866A1, “NOVEL 2-DIMETHYLAMINO-3-AMIDO-6-AMINO-PYRIDINE DERIVATIVES USEFUL AS POTASSIUM CHANNEL ACTIVATORS” (priority 2007, published 2011)

Target: T1, human Kv72+3 channels (Homo sapiens, UniProt O43525+O43526)
T1 construct: expressed in transfected cells; host or cells: HEK293
Assay: patch-clamp, HEK293 cell lines stably expressing human Kv7.2+3 channels
Format: cell-based
Details: conc. 0.03 μM, −30 mV, 20 ms; current relative to baseline current defined as 100%
From the text: The effect obtained by these channel activators is described as a percentage increase in baseline current at a given concentration. The baseline current is defined as 100%, and an increase in current is expressed relative to this, i.e. an increase from 1 nA to 1.2 nA is reported as 120%.

Compound | IK (%)
CN(C)c1nc(NCc2ccc(F)cc2)ccc1NC(=O)Cc1ccc(F)c(F)c1 [Compound 1, N-[2-Dimethylamino-6-(4-fluoro-benzylamino)-pyridin-3-yl]-2-(3,4-difluoro-phenyl)-acetamide] | 215
CN(C)c1nc(NCc2ccc(F)cc2)ccc1NC(=O)Cc1ccc(C(F)(F)F)c(F)c1 [Compound 3, N-[2-Dimethylamino-6-(4-fluoro-benzylamino)-pyridin-3-yl]-2-(3-fluoro-4-trifluoromethyl-phenyl)-acetamide] | 162
CN(C)c1nc(NCc2ccc(F)cc2)ccc1NC(=O)CCc1cccc(F)c1 [Compound 5, N-[2-Dimethylamino-6-(4-fluoro-benzylamino)-pyridin-3-yl]-3-(3-fluoro-phenyl)-propionamide] | 174
CN(C)c1nc(NCc2ccc(F)cc2)ccc1NC(=O)CC(C)(C)C [Compound 8, N-[2-Dimethylamino-6-(4-fluoro-benzylamino)-pyridin-3-yl]-3,3-dimethyl-butyramide] | 233
